US5736376A, “Recombinant endothelin converting enzyme-2 and its use in ECE inhibitor screening” (Board of Regents, The University of Texas System, priority 1995, dated 1998)
Read-outs that look alike come from different tables or passages of the source.

Tests used:
ECE-1 [1] = biological target: T1, ECE-1 (Bos taurus, UniProt P42891); assay: Protease inhibitor assay of ECE-1, solubilized CHO/ECE-1 membranes, big ET-1 conversion, pH 6.8; format: biochemical, bovine; settings: sensitivity to protease inhibitors, Table 2
T1 construct: made in house
T1 sequence (P42891 1-754): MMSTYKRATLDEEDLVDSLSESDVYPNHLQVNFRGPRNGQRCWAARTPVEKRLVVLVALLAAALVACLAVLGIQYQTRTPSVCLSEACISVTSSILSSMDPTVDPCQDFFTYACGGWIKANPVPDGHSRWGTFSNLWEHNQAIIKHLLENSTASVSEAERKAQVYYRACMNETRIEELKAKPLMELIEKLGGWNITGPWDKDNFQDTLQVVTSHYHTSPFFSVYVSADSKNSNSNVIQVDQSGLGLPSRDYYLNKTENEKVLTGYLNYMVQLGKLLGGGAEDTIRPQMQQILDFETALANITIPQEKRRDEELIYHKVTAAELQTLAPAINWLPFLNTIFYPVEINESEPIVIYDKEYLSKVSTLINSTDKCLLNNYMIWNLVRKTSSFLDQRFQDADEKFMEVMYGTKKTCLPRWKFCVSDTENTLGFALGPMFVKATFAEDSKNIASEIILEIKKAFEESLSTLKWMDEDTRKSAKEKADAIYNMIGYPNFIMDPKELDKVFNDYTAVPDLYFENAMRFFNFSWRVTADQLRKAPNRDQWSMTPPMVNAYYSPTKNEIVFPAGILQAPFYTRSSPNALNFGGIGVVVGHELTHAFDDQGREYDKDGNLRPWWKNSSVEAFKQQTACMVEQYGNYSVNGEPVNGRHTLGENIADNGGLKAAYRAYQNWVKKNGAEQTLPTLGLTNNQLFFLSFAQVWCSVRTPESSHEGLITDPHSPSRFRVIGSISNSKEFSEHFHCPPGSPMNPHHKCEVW
Method: Solubilized crude membranes were prepared in parallel from CHO/ECE-2 and CHO/ECE-1 cells as described (Xu et al., 1994). For protease inhibitor studies, membranes were prepared without protease inhibitors. Standard reaction mixtures for the ECE-2 assay (50 μl) contained 0.1M 2-[N-morpholino]ethanesulfonic acid (MES) buffer (pH 5.5), 0.5M NaCl, 0.1 μM human big ET-1 and an enzyme fraction. ECE-1 assay reactions contained 0.1M phosphate buffer (pH 6.8) instead of the MES buffer. For the pH profiling and isopeptide selectivity studies, the buffer solution (0.1M) or the substrate (0.1 μM) was substituted as designated. For the inhibitor studies, the reactions were preincubated at 37° C. with protease inhibitor or vehicle for 15 min. Reactions were started by the addition of substrate, and incubated at 37° C. for 30 min in siliconized 0.5-ml microcentrifuge tubes. […] The mixture was then directly assayed for mature ET-1 as described (Suzuki et al., 1989). Duplicate assay wells were used for each enzyme reaction. […] Protein concentrations were determined by the Bradford method (Bio-Rad) using IgG as standard.

ECE-2 [2] = biological target: T2, ECE-2 (Bos taurus, UniProt P0DPE2); assay: Protease inhibitor assay of ECE-2, solubilized CHO/ECE-2 membranes, big ET-1 conversion, pH 5.5; format: biochemical, bovine; settings: in vitro (test tube), pH 5.5
T2 construct: solubilized crude membranes or live cells
T2 sequence (P0DPE2 97-883): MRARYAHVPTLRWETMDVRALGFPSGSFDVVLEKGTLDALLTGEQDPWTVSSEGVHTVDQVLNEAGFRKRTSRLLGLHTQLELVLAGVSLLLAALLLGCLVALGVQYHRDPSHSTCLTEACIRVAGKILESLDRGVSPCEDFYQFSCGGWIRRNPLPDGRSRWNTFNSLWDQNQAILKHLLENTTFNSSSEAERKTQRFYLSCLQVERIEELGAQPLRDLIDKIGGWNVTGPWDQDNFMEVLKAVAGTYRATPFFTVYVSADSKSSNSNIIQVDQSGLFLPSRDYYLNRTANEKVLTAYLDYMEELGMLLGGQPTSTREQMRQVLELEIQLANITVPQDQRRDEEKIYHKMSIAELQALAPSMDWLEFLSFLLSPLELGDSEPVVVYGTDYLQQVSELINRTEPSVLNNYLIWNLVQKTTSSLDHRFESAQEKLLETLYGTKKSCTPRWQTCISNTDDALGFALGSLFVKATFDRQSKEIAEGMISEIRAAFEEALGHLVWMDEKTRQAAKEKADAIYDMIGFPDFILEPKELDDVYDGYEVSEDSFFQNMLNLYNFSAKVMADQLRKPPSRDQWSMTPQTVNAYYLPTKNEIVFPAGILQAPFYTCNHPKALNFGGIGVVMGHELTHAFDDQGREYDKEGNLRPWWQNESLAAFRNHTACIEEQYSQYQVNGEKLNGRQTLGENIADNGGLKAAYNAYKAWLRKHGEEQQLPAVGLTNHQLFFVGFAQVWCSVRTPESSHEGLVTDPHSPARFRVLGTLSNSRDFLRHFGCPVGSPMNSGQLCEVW
Method: In all subsequent studies, ECE-2 assays were performed at pH 5.5.
Solubilized crude membranes were prepared in parallel from CHO/ECE-2 and CHO/ECE-1 cells as described (Xu et al., 1994). For protease inhibitor studies, membranes were prepared without protease inhibitors. Standard reaction mixtures for the ECE-2 assay (50 μl) contained 0.1M 2-[N-morpholino]ethanesulfonic acid (MES) buffer (pH 5.5), 0.5M NaCl, 0.1 μM human big ET-1 and an enzyme fraction. […] For the inhibitor studies, the reactions were preincubated at 37° C. with protease inhibitor or vehicle for 15 min. Reactions were started by the addition of substrate, and incubated at 37° C. for 30 min in siliconized 0.5-ml microcentrifuge tubes. […] The mixture was then directly assayed for mature ET-1 as described (Suzuki et al., 1989). Duplicate assay wells were used for each enzyme reaction.

ECE-2 [3] = biological target: T2, ECE-2; assay: Double-transfection live cell assay: mature ET-1 secretion by CHO/ECE-2 cells transfected with preproET-1 cDNA; format: cell-based, bovine; settings: production of mature ET-1; 12 h; ECE-2-preproET-1 double transfected cells; read-out: apparent IC50, live cell assay, CHO/ECE-2
Method: Production of mature ET-1 by CHO/ECE-2 cells transiently transfected with preproET-1 cDNA: Cleavage of endogenously produced big ET-1. Doubly transfected cells were cultured for 12 h in the absence or presence of the designated concentrations of ECE inhibitors, and mature ET-1 in the conditioned medium was determined. Negative control studies with parental CHO cells are shown by dashed lines.
CHO/ECE-2 cells and untransfected CHO cells were transiently transfected in parallel with a preproET-1 construct, and mature ET-1 secreted from these cells into the medium was determined by EIA.
CHO-K1 cells were cultured as described (Xu et al., 1994). Since many batches of tissue culture-grade trypsin preparations contained high levels of metalloprotease contaminants with an ECE-like activity, a highly purified crystallized preparation of trypsin (Sigma, Catalog No. T7418) was dissolved in phosphate-buffered saline at 0.013% (w/v) and used for all trypsinization procedures. […] Twelve hours after the transient transfection, cells were refed with fresh medium with or without ECE inhibitors. The medium was conditioned for an additional 12 h and directly subjected to enzyme immunoassay (EIA) for mature ET-1 (Suzuki et al., 1989).

[4] = test system: cultured endothelial cells; settings: cited from earlier work
big endothelins = settings: whole animal preparations and isolated perfused tissues; cited from earlier work
[5] = test system: this family of metalloproteases; settings: Opgenorth et al., 1992; cited from earlier work
ECE-1 [6] = biological target: T1, ECE-1; settings: high concentrations; Xu et al., 1994; cited from earlier work

CC(C)C[C@H](NP(=O)(O)O[C@@H]1O[C@@H](C)[C@H](O)[C@@H](O)[C@H]1O)C(=O)N[C@@H](Cc1c[nH]c2ccccc12)C(=O)O [Phosphoramidon]
inhibition of ECE-1 (ECE-1 [1]): inhibited | IC50 (ECE-2 [2]): 0.004 µM | IC50 (ECE-2 [3]): ~20 µM | inhibition of secretion of mature ET-1 / processing of endogenous big ET-1 (words) [4]: inhibit the secretion of mature ET-1 | inhibition of secretion of mature ET-1 / processing of endogenous big ET-1 (words) ([4]; listed as phosphoramidon): inhibited | inhibition of vasopressor actions of exogenous big endothelins (big endothelins): inhibited | type of inhibition [5]: competitive inhibitor | inhibition of big ET-1 conversion in ECE-1/preproET-1 doubly transfected cells (ECE-1 [6]): capable of inhibiting the conversion of big ET-1
